In PubChem BioAssay (NCI):
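Grown in 96-well plates, cells were treated for 48 hours with each compound at five concentrations. Insufficient inhibition: endpoint recorded as highest concentration tested. The concentration for full growth arrest is given as TGI.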

Columns and labels:
Experiment in all cases: NCI-60 cell line screen, 48 h
COLO 205 colon = system: COLO 205 colon
HOP-62 NSCLC = system: HOP-62 NSCLC
RXF 393 renal = system: RXF 393 renal
NCI-H522 lung = system: NCI-H522 lung
OVCAR-5 ovarian = system: OVCAR-5 ovarian
HL-60(TB) leukemia = system: HL-60(TB) leukemia
NCI/ADR-RES ovarian = system: NCI/ADR-RES ovarian
SR leukemia = system: SR leukemia
SK-OV-3 ovarian = system: SK-OV-3 ovarian
PC-3 prostate = system: PC-3 prostate
A498 renal = system: A498 renal
NCI-H226 lung = system: NCI-H226 lung
NCI-H23 lung = system: NCI-H23 lung
SNB-75 CNS = system: SNB-75 CNS
MALME-3M melanoma = system: MALME-3M melanoma
UO-31 renal = system: UO-31 renal
HOP-92 NSCLC = system: HOP-92 NSCLC
U251 CNS = system: U251 CNS
SK-MEL-5 melanoma = system: SK-MEL-5 melanoma
MCF7 breast = system: MCF7 breast
HT29 colon = system: HT29 colon
SF-295 CNS = system: SF-295 CNS
HCT-116 colon = system: HCT-116 colon
MDA-N = system: MDA-N
M14 melanoma = system: M14 melanoma
SK-MEL-2 melanoma = system: SK-MEL-2 melanoma
HCC-2998 colon = system: HCC-2998 colon
HCT-15 colon = system: HCT-15 colon
RPMI-8226 leukemia = system: RPMI-8226 leukemia
MDA-MB-231 breast = system: MDA-MB-231 breast
KM12 colon = system: KM12 colon
CCRF-CEM leukemia = system: CCRF-CEM leukemia
T-47D breast = system: T-47D breast
DU-145 prostate = system: DU-145 prostate
MOLT-4 leukemia = system: MOLT-4 leukemia
IGROV1 ovarian = system: IGROV1 ovarian
OVCAR-3 ovarian = system: OVCAR-3 ovarian
NCI-H460 lung = system: NCI-H460 lung
SK-MEL-28 melanoma = system: SK-MEL-28 melanoma
K-562 leukemia = system: K-562 leukemia
UACC-62 melanoma = system: UACC-62 melanoma
MDA-MB-435 = system: MDA-MB-435
SNB-19 CNS = system: SNB-19 CNS
CAKI-1 renal = system: CAKI-1 renal
OVCAR-8 ovarian = system: OVCAR-8 ovarian
SW-620 colon = system: SW-620 colon
SF-268 CNS = system: SF-268 CNS
ACHN renal = system: ACHN renal
SF-539 CNS = system: SF-539 CNS
SN12C renal = system: SN12C renal
786-0 renal = system: 786-0 renal
UACC-257 melanoma = system: UACC-257 melanoma
A549 NSCLC = system: A549 NSCLC
HS 578T breast = system: HS 578T breast
LOX IMVI melanoma = system: LOX IMVI melanoma
EKVX NSCLC = system: EKVX NSCLC
TK-10 renal = system: TK-10 renal

For `O=C(N=Nc1ccc(Br)cc1)NNc1ccc(Br)cc1`, the TGI (COLO 205 colon) was 48.9 µM, the TGI (HOP-62 NSCLC) was 32.6 µM and the TGI (RXF 393 renal) was 28.7 µM. It also gave a TGI (NCI-H522 lung) of 31 µM, a TGI (OVCAR-5 ovarian) of 57.1 µM and a TGI (HL-60(TB) leukemia) greater than 100 µM. For the same compound, the TGI (NCI/ADR-RES ovarian) was 43.3 µM, the TGI (SR leukemia) was greater than 100 µM and the TGI (SK-OV-3 ovarian) was 74 µM. For the same compound, the TGI (PC-3 prostate) was 31.9 µM, the TGI (A498 renal) was greater than 100 µM and the TGI (NCI-H226 lung) was 47.1 µM. It also gave a TGI (NCI-H23 lung) of 68.9 µM, a TGI (SNB-75 CNS) of 61.9 µM and a TGI (MALME-3M melanoma) of 87.1 µM. It also gave a TGI (UO-31 renal) of 65.2 µM, a TGI (HOP-92 NSCLC) of 30.7 µM and a TGI (U251 CNS) of 34.7 µM. The TGI (SK-MEL-5 melanoma) was 26.9 µM, the TGI (MCF7 breast) was 40.8 µM and the TGI (HT29 colon) was 33.1 µM. For the same compound, the TGI (SF-295 CNS) was greater than 100 µM, the TGI (HCT-116 colon) was 31.3 µM and the TGI (MDA-N) was 64.7 µM. It also gave a TGI (M14 melanoma) of 31.8 µM, a TGI (SK-MEL-2 melanoma) of 37.9 µM and a TGI (HCC-2998 colon) of 55.7 µM. It also gave a TGI (HCT-15 colon) of 58.2 µM, a TGI (RPMI-8226 leukemia) of 78 µM and a TGI (MDA-MB-231 breast) of 47.2 µM. It also gave a TGI (KM12 colon) of 35.1 µM, a TGI (CCRF-CEM leukemia) of 18.2 µM and a TGI (T-47D breast) greater than 100 µM. It also gave a TGI (DU-145 prostate) greater than 100 µM, a TGI (MOLT-4 leukemia) of 26 µM and a TGI (IGROV1 ovarian) of 64.7 µM. It also gave a TGI (OVCAR-3 ovarian) of 30.5 µM, a TGI (NCI-H460 lung) of 44 µM and a TGI (SK-MEL-28 melanoma) of 64.5 µM. For the same compound, the TGI (K-562 leukemia) was 25 µM, the TGI (UACC-62 melanoma) was 27.2 µM and the TGI (MDA-MB-435) was 46.1 µM. For the same compound, the TGI (SNB-19 CNS) was greater than 100 µM, the TGI (CAKI-1 renal) was 52.9 µM and the TGI (OVCAR-8 ovarian) was greater than 100 µM.
For `Cc1ccc(Nc2nc(C)c(C(=O)CC(=O)C(=O)Nc3ccc(Cl)cc3)s2)cc1`, the TGI (COLO 205 colon) was greater than 100 µM, the TGI (HOP-62 NSCLC) was greater than 100 µM and the TGI (RXF 393 renal) was greater than 100 µM. It also gave a TGI (SW-620 colon) greater than 100 µM, a TGI (NCI-H522 lung) greater than 100 µM and a TGI (OVCAR-5 ovarian) greater than 100 µM. It also gave a TGI (HL-60(TB) leukemia) greater than 100 µM, a TGI (SR leukemia) greater than 100 µM and a TGI (SF-268 CNS) greater than 100 µM. It also gave a TGI (SK-OV-3 ovarian) greater than 100 µM, a TGI (PC-3 prostate) greater than 100 µM and a TGI (A498 renal) greater than 100 µM. It also gave a TGI (NCI-H23 lung) greater than 100 µM, a TGI (SNB-75 CNS) greater than 100 µM and a TGI (MALME-3M melanoma) greater than 100 µM. The TGI (ACHN renal) was greater than 100 µM, the TGI (UO-31 renal) was greater than 100 µM and the TGI (HOP-92 NSCLC) was greater than 100 µM. For the same compound, the TGI (U251 CNS) was greater than 100 µM, the TGI (SF-539 CNS) was greater than 100 µM and the TGI (SK-MEL-5 melanoma) was greater than 100 µM. For the same compound, the TGI (MCF7 breast) was greater than 100 µM, the TGI (SF-295 CNS) was greater than 100 µM and the TGI (SN12C renal) was greater than 100 µM. The TGI (786-0 renal) was greater than 100 µM, the TGI (HCT-116 colon) was greater than 100 µM and the TGI (MDA-N) was greater than 100 µM. It also gave a TGI (M14 melanoma) greater than 100 µM, a TGI (UACC-257 melanoma) greater than 100 µM and a TGI (SK-MEL-2 melanoma) greater than 100 µM. It also gave a TGI (HCC-2998 colon) greater than 100 µM, a TGI (HCT-15 colon) greater than 100 µM and a TGI (A549 NSCLC) greater than 100 µM. It also gave a TGI (RPMI-8226 leukemia) greater than 100 µM, a TGI (MDA-MB-231 breast) greater than 100 µM and a TGI (KM12 colon) greater than 100 µM. It also gave a TGI (CCRF-CEM leukemia) greater than 100 µM, a TGI (HS 578T breast) greater than 100 µM and a TGI (T-47D breast) greater than 100 µM. It also gave a TGI (DU-145 prostate) greater than 100 µM, a TGI (MOLT-4 leukemia) greater than 100 µM and a TGI (IGROV1 ovarian) greater than 100 µM. For the same compound, the TGI (OVCAR-3 ovarian) was greater than 100 µM, the TGI (NCI-H460 lung) was greater than 100 µM and the TGI (LOX IMVI melanoma) was greater than 100 µM. For the same compound, the TGI (SK-MEL-28 melanoma) was greater than 100 µM, the TGI (K-562 leukemia) was greater than 100 µM and the TGI (EKVX NSCLC) was greater than 100 µM. The TGI (UACC-62 melanoma) was greater than 100 µM, the TGI (MDA-MB-435) was greater than 100 µM and the TGI (TK-10 renal) was greater than 100 µM. The TGI (SNB-19 CNS) was greater than 100 µM and the TGI (CAKI-1 renal) was greater than 100 µM.
